The values below come from ChEMBL document CHEMBL6115022, “The Heterogeneous Kinetic Origins of the Binding Properties of Orthosteric Ligands at Heteromeric Nicotinic Acetylcholine Receptors” (J Med Chem, 2025).

Test [1] has as its target T1, Neuronal acetylcholine receptor; alpha4/beta2 (Homo sapiens, UniProt P17787+P43681). Nature of the test: Displacement of [3H]epibatidine from human alpha4beta2 nAChR extracted from HEK293 cell membrane assessed as association binding constant (Kon) incubated for 240 mins by liquid scintillation counting method. Format: cell membranes. In general terms: Displacement assays read how much labelled ligand stays bound in the presence of the test substance.

Test [2] deals with T1, Neuronal acetylcholine receptor; alpha4/beta2. Nature of the test: Displacement of [3H]epibatidine from human alpha4beta2 nAChR extracted from HEK293 cell membrane assessed as dissociation binding constant (Koff) incubated for 240 mins by liquid scintillation counting method. Format: cell membranes.
Test [3] shares this target. The experiment in a line: Displacement of [3H]epibatidine from human alpha4beta2 nAChR extracted from HEK293 cell membrane assessed as residence time incubated for 240 mins by liquid scintillation counting method. Format: cell membranes.
The target in test [4] is T2, Neuronal acetylcholine receptor; alpha3/beta4 (Rattus norvegicus) (UniProt P04757+P12392). The experiment in a line: Displacement of [3H]epibatidine from rat alpha3beta4 nAChR extracted from HEK293 cell membrane assessed as association binding constant (Kon) incubated for 60 to 120 mins by liquid scintillation counting method. Type of test: cell membranes. To be noted: filed as agonist, time lower 60.0 min, time upper […].

The target in test [5] is T2, Neuronal acetylcholine receptor; alpha3/beta4 (Rattus norvegicus). The experiment in a line: Displacement of [3H]epibatidine from rat alpha3beta4 nAChR extracted from HEK293 cell membrane assessed as dissociation binding constant (Koff) incubated for 60 to 120 mins by liquid scintillation counting method. Type of test: cell membranes. To be noted: filed as agonist, time lower 60.0 min, time upper […].

The target is the same in test [6]. Nature of the test: Displacement of [3H]epibatidine from rat alpha3beta4 nAChR extracted from HEK293 cell membrane assessed as residence time incubated for 60 to 120 mins by liquid scintillation counting method. Format: cell membranes. The conditions noted are these: filed as agonist, time lower 60.0 min, time upper […].
Test [7] has as its target T1, Neuronal acetylcholine receptor; alpha4/beta2. The experiment in a line: Displacement of [3H]epibatidine from human alpha4beta2 nAChR extracted from HEK293 cell membrane assessed as inhibition constant incubated for 240 mins by liquid scintillation counting method. Type of test: cell membranes.
Test [8] has the same target. The experiment in a line: Displacement of [3H]epibatidine from human alpha4beta2 nAChR extracted from HEK293 cell membrane assessed as dissociation constant incubated for 240 mins by liquid scintillation counting method. Format: cell membranes.
Test [9] has as its target T3, Neuronal acetylcholine receptor; alpha3/beta4 (Rattus norvegicus, UniProt P04757+P12392). Nature of the test: Displacement of [3H]epibatidine from rat alpha3beta4 nAChR extracted from HEK293 cell membrane assessed as inhibition constant incubated for 60 to 120 mins by liquid scintillation counting method. Format: cell membranes.
For test [10], the target named is T3, Neuronal acetylcholine receptor; alpha3/beta4. The experiment in a line: Displacement of [3H]epibatidine from rat alpha3beta4 nAChR extracted from HEK293 cell membrane assessed as dissociation constant incubated for 60 to 120 mins by liquid scintillation counting method. Format: cell membranes.
Test [11] can be described thus: Selectivity index, ratio of Ki for displacement of [3H]epibatidine from rat alpha3beta4 nAChR extracted from HEK293 cell membrane to Ki for displacement of [3H]epibatidine from human alpha4beta2 nAChR extracted from HEK293 cell membrane.
Test [12] concerns the target T1, Neuronal acetylcholine receptor; alpha4/beta2. Nature of the test: Displacement of [3H]epibatidine from human alpha4beta2 nAChR extracted from HEK293 cell membrane assessed as fold increase in association binding constant (Kon) incubated for 240 mins by liquid scintillation counting method relative to (+)-DHbetaE. Format: cell membranes. To be noted: filed as antagonist.

The target is the same in test [13]. The experiment in a line: Displacement of [3H]epibatidine from human alpha4beta2 nAChR extracted from HEK293 cell membrane assessed as fold increase in […] binding constant (Koff) incubated for 240 mins by liquid scintillation counting method relative to (+)-DHbetaE. Type of test: cell membranes. The conditions noted are these: filed as antagonist.
A short description of test [14]: Selectivity index, ratio of K(on) for displacement of [3H]epibatidine from human alpha4beta2 nAChR extracted from HEK293 cell membrane to K(on) for displacement of [3H]epibatidine from rat alpha3beta4 nAChR extracted from HEK293 cell membrane.
The nature of test [15]: Selectivity index, ratio of K(off) for displacement of [3H]epibatidine from human alpha4beta2 nAChR extracted from HEK293 cell membrane to K(off) for displacement of [3H]epibatidine from rat alpha3beta4 nAChR extracted from HEK293 cell membrane.

Molecules are shown by their SMILES. pKd, pKi: −log10 of the molar value.

By pKi is commonly meant −log10 of the Ki, conventionally taken in molar units. As a reminder, the pKd is −log10 of the Kd, conventionally taken in molar units.

T1 sequence (P17787 whole entry): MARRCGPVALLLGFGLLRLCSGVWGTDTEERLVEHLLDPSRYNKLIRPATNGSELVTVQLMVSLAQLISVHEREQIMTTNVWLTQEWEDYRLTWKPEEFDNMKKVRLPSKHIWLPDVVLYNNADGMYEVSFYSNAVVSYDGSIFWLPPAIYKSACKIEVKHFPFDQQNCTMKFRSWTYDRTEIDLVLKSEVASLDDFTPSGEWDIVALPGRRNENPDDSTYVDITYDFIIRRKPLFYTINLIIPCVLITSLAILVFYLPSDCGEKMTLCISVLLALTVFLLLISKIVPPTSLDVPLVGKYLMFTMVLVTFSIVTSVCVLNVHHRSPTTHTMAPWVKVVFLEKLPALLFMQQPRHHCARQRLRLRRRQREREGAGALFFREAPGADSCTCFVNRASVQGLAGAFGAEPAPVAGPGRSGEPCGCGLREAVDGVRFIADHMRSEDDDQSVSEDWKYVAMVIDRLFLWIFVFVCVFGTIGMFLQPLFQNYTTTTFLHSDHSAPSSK
T1 sequence (P43681 whole entry): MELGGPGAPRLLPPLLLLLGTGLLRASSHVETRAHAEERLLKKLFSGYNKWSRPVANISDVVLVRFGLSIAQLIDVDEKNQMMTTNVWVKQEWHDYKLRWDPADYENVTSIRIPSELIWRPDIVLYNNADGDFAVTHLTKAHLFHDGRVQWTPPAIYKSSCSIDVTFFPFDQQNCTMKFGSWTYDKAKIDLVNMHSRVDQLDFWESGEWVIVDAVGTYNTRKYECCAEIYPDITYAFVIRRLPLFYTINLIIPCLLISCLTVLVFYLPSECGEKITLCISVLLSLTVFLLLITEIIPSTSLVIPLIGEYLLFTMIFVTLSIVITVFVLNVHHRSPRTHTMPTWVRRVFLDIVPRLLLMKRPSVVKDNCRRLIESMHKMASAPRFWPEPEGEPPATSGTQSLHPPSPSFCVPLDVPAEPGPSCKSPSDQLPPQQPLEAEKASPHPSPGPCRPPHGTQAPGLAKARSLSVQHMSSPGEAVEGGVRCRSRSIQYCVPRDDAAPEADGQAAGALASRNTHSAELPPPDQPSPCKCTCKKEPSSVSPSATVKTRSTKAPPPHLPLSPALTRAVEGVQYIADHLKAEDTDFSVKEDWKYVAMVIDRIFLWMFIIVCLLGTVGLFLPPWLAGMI
T3 sequence (P04757 whole entry): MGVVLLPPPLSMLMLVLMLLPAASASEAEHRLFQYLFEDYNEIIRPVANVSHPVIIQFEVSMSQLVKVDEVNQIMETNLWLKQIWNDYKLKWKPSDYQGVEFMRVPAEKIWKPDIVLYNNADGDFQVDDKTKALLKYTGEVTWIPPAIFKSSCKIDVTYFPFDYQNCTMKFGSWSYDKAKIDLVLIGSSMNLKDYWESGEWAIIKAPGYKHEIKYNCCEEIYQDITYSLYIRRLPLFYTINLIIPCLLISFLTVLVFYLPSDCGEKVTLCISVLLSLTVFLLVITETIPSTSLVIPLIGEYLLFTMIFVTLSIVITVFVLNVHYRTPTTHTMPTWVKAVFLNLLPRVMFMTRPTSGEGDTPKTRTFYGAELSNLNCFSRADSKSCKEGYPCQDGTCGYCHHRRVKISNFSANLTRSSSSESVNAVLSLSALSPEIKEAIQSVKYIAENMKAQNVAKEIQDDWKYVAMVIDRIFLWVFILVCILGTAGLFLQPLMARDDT
T3 sequence (P12392 whole entry): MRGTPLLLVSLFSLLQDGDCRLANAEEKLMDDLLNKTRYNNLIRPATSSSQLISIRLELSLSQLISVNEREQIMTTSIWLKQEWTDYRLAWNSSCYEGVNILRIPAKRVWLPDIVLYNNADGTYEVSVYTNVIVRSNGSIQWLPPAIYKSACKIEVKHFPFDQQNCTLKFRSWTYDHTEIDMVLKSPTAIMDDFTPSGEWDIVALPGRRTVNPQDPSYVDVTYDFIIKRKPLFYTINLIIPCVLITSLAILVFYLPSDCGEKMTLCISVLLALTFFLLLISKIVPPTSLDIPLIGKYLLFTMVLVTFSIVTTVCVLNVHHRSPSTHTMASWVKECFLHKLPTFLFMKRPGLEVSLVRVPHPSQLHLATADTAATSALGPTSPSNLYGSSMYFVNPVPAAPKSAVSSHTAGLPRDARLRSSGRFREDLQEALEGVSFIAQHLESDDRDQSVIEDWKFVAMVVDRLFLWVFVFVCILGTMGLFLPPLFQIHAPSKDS

Regarding `Clc1ccc(C2CC3CCC2N3)cn1` (racemic), the K in [1] (filed as agonist) stood at 1.3 nM⁻¹ min⁻¹; in test [2] (filed as agonist) it was 0.012 min⁻¹; in test [4], 1.3 nM⁻¹ min⁻¹; in test [5], 0.17 min⁻¹. For the same compound, the TIME in test [3] (filed as agonist) is 1.4 h; in test [6], 0.103 h.
As for `C[N+](C)(C)CCOC(N)=O` [CARBAMOYLCHOLINE], the values for the pKi in [7] and in test [9] were 7.25 and 5.70, respectively. Moreover, the K in [1] (filed as agonist) was 0.001 nM⁻¹ min⁻¹; in test [2] (filed as agonist) it was 0.25 min⁻¹; in test [4], 0.31 10^-3/nM/min; in [5] it was 0.33 min⁻¹. The TIME in test [3] (filed as agonist) is 0.09 h; in test [6], 0.06 h. Further, the pKd in [8] was 6.70; in test [10], 5.82. In test [11], the Ratio Ki was 8.
`CO[C@H]1CC=C2CCN3CCC4=C(CC(=O)OC4)[C@]23C1`: the K is 0.3 10^-3/nM/min in [1] (filed as antagonist) and 0.01 min⁻¹ in test [2] (filed as antagonist). Besides, the TIME in test [3] (filed as antagonist) came out at 1.87 h.
In the case of `O=c1cccc2n1C[C@@H]1CNC[C@H]2C1` [CYTISINICLINE], the values for the pKi in test [7] and in [9] were 9.70 and 6.96, respectively. For the same compound, the K in test [1] (filed as agonist) amounted to 0.26 nM⁻¹ min⁻¹; in test [2] (filed as agonist) it was 0.05 min⁻¹; in test [4] it was 0.002 nM⁻¹ min⁻¹; in test [5], 0.24 min⁻¹. The TIME was 0.367 h in test [3] (filed as agonist) and 0.075 h in test [6]. Besides, the pKd in [8] is 9.68; in [10], 6.82. In [11], the Ratio Ki worked out at 150.
Consider `Cc1ncccc1OC[C@@H]1CCCN1` [POZANICLINE], for which the K was 0.031 nM⁻¹ min⁻¹ in test [1] (filed as agonist), 0.23 min⁻¹ in test [2] (filed as agonist), 0.03 10^-3/nM/min in test [4] and 0.44 min⁻¹ in [5]. In addition, the TIME in test [3] (filed as agonist) stood at 0.0783 h; in test [6] it was 0.04 h. In addition, the pKi in test [9] was 5.00. The pKd in [10] is 4.77.
With `CN1CCC[C@H]1c1cccnc1`, the K in [1] (filed as agonist) was 0.23 nM⁻¹ min⁻¹; in [2] (filed as agonist), 0.27 min⁻¹; in [4], 0.002 nM⁻¹ min⁻¹; in [5], 0.3 min⁻¹. For the same compound, the TIME in [3] (filed as agonist) and in [6] was 0.0683 h each time.
`CO[C@H]1CC=C2CCN3CCc4ccc(O)cc4[C@]23C1`: the negative-log Ki (pKi) in test [7] is 8.51. Moreover, the K came to 0.045 nM⁻¹ min⁻¹ in [1] (filed as antagonist) and 0.12 min⁻¹ in test [2] (filed as antagonist). Also, the TIME in [3] (filed as antagonist) worked out at 0.15 h. Further, in [8], the negative logarithm of the Kd (pKd) was 8.54. Besides, the Ratio came out at 130 in [12] and 13 in [13].
With `CCOc1cncc(/C=C/CCNC)c1`, the results for the pKi in test [7] and in [9] were 9.10 and 4.60, respectively. Moreover, the K in [1] (filed as agonist) is 0.29 nM⁻¹ min⁻¹; in test [2] (filed as agonist), 0.57 min⁻¹; in [4] it was 0.064 10^-3/nM/min; in [5], 0.77 min⁻¹. Moreover, the values for the TIME in [3] (filed as agonist) and in test [6] were 0.0417 h and 0.0283 h, respectively. Moreover, the pKd was 8.77 in [8] and 4.92 in [10]. For the same compound, the Ratio Ki in test [11] turned out to be 7000.
As to `OCCCCC#Cc1cncc(OC[C@@H]2CCN2)c1`, the figures for the pKi in test [7] and in [9] were 10.77 and 5.66, respectively. For the same compound, the K in test [1] (filed as agonist) is 0.67 nM⁻¹ min⁻¹; in [2] (filed as agonist), 0.004 min⁻¹; in [4], 0.2 10^-3/nM/min; in [5], 0.39 min⁻¹. The results for the TIME in test [3] (filed as agonist) and in test [6] were 4.5 h and 0.0467 h, respectively. Moreover, the negative logarithm of the Kd (pKd) is 11.22 in test [8] and 5.66 in [10]. Moreover, in test [11], the Ratio Ki came to 7000. Moreover, the Ratio in test [14] was 3000; in test [15], 100.
